This passage reports inhibition in vivo results from US12391674B2, “Heterocyclic compounds for the treatment of epilepsy” (OTSUKA PHARMACEUTICAL CO., LTD., priority 2018, dated 2025).

Structures can show the parent of a compound that is named as a salt.

The subject of the first assay is DBA/2 mice. The experiment in a line: Audiogenic seizure model. Format: in vivo. Particulars: Mus musculus; DBA/2 mice, oral, dose 3 mg/kg, auditory stimulation 1 hour after administration; read-out: Seizure suppression. The method, then: The animal model used in this test is a phenotype model for partial seizure (including secondary generalized seizure) and generalized tonic-clonic seizure, and has high clinical predictability. This test was performed in accordance with the report of De Sarro et al (Br J Pharmacol. 1988 February; 93 (2): 247-56. Anticonvulsant effects of some calcium entry blockers in DBA/2 mice. De Sarro G B, Meldrum B S, Nistico G.).
In this test example, the example compounds shown in Tables 3-1 to 3-3 below were used as test compounds.
The test compounds were suspended in 5% gum arabic/distilled water (w/v), and administered by forced oral administration to male and female DBA/2 mice (Japan SLC, Inc., 3 weeks old, 8 per group) at a dose of 30 mg/kg. After one hour of the oral administration of the test compound, each mouse was placed in a transparent acrylic cylinder 30 cm high and 23 cm in diameter, and 30 seconds were allowed for habituation. Then, they were exposed to auditory stimulation (12.6 kHz, 100-110 dB) for 1 minute or until a tonic seizure occurred.
The seizure response was assessed using the following scale, 0: no seizure, 1: wild running, 2: clonic seizure, 3: tonic seizure and 4: respiratory arrest. The maximum response was recorded as the seizure severity score.
The seizure suppression rate for each compound administration group was calculated according to the following formula.
Here, a rate of seizure suppression of 90% or more was expressed as “A”, a rate of seizure suppression of 70% or more and less than 90% was expressed as “B”, and a rate of seizure suppression of 50% or more and less than 70% was expressed as “C”.
`Cc1ccc(-c2cnc(Oc3cccc(C(F)(F)F)c3)nc2)nn1` [Example 13]: the inhibition in vivo at 3 mg/kg is above 90%.

The same assay, now with this note: Mus musculus; DBA/2 mice, oral, dose 5 mg/kg, auditory stimulation 1 hour after administration; read-out: Seizure suppression.
In the case of `Fc1ccc(Oc2ncc(-c3ccc4nccn4c3)cn2)cc1F` [Example 168], the inhibition in vivo at 5 mg/kg was above 90%.

Consider `Fc1ccc(Oc2ncc(-c3ccc4nccn4c3)cn2)c(F)c1` [Example 165], for which the inhibition in vivo at 5 mg/kg was above 90%. The same measure, in the same setting: as for `Nc1ccc(-c2cnc(Oc3ccccc3F)nc2)cn1` [Example 45], the figure is above 90%; as for `Fc1cccc(Oc2ncc(-c3ccc4nccn4c3)cn2)c1F` [Example 164], above 90%.

The assay is the same for the next values; noted with them: Mus musculus; DBA/2 mice, oral, dose 30 mg/kg, auditory stimulation 1 hour after administration; read-out: Seizure suppression.
Regarding `Nc1ccc(-c2cnc(Oc3ccc(F)cc3F)nc2)cn1` [Example 86], the inhibition in vivo at 30 mg/kg was above 90%.

`CN1C(=O)CCN(c2ccc(Oc3cccc(F)c3)cc2)C1=O` [Example 308, 1-(4-(3-Fluorophenoxy)Phenyl)-3-Methyldihydropyrimidine-2,4 (1H,3H)-Dione]: the inhibition in vivo at 30 mg/kg fell in the range of 50 to 70%. On to `Nc1cn2cc(-c3cnc(Oc4ccccc4)nc3)ccc2n1` [Example 140], for which the inhibition in vivo at 30 mg/kg was above 90%.

As to `Fc1ccc(Oc2ncc(-c3ccn4ccnc4c3)cn2)cc1` [Example 132], the inhibition in vivo at 30 mg/kg is above 90%. As for `COc1nc(Oc2ccccc2)ncc1-c1cccc2c1CC(=O)N2` [Example 273], the inhibition in vivo at 30 mg/kg was above 90%. On the same count and under the same terms, as for `Fc1cccc(Oc2ncc(-c3ccnnc3)cn2)c1` [Example 32], the figure is above 90%; as for `Cc1ncccc1-c1cnc(Oc2cccc(OC(F)(F)F)c2)nc1` [Example 77], above 90%. Take `Fc1ccccc1Oc1ncc(-c2ccc3cncn3c2)cn1` [Example 156]: the inhibition in vivo at 30 mg/kg was above 90%.

As for `O=c1ccc(-c2cnc(Oc3ccc(F)cc3F)nc2)n[nH]1` [Example 109], the inhibition in vivo at 30 mg/kg is above 90%. Still for that read-out and setting: as for `O=C1CCN(c2ccc(Oc3cccc(F)n3)cc2)C(=O)N1` [Example 321, 1-[4-(6-Fluoropyridin-2-Yloxy)Phenyl]Dihydropyrimidine-2,4 (1H,3H)-Dione], the figure is 50 to 70%; as for `COc1nc(Oc2ccccc2)ncc1-c1ccc2c(c1)CC(=O)N2` [Example 274], above 90%. Turning to `O=C1CCOCCN1c1cnc(Oc2cccc(F)c2)nc1` [Example 233], the inhibition in vivo at 30 mg/kg was above 90%. Still for that read-out and setting: as for `Cc1nc2cc(-c3cnc(Oc4ccc(F)cc4)nc3)ccn2c1C` [Example 207], the figure is above 90%; as for `O=c1ccc(-c2cnc(Oc3cccc(F)c3F)nc2)n[nH]1` [Example 110], above 90%; as for `Fc1ccc(Oc2ncc(-c3ccc4nnc(C(F)(F)F)n4c3)cn2)cc1` [Example 282], above 90%. On the same count and under the same terms, for `Nc1ccc(-c2cnc(Oc3cccc(F)c3F)nc2)cn1` [Example 87] the value was above 90%. Still for that read-out and setting: for `Nc1cc(-c2cnc(Oc3cccc(OC(F)(F)F)c3)nc2)ccn1` [Example 83] the value was above 90%. With `Fc1cccc(Oc2ncc(-c3ccc4cncn4c3)cn2)c1` [Example 157], the inhibition in vivo at 30 mg/kg was above 90%. The same measure, in the same setting: for `Fc1cc(F)cc(Oc2ncc(-c3cccnc3)cn2)c1` [Example 18] the value was above 90%. For the compound `Cc1c(-c2cnc(Oc3ccc(F)cc3)nc2)ccc2nccn12` [Example 201], the inhibition in vivo at 30 mg/kg is above 90%. Take `FC(F)(F)c1cccc(-c2cnc(Oc3ccccc3)nc2)n1` [Example 301]: the inhibition in vivo at 30 mg/kg was above 90%. Same read-out and setting: for `O=C1CCc2cc(-c3cnc(Oc4ccccc4F)nc3)ccc2N1` [Example 270] the value was above 90%; for `Fc1ccc(Oc2ncc(-c3ccn4cnnc4c3)cn2)cc1` [Example 213], above 90%. On the same count and under the same terms, as for `O=C1Cc2c(cccc2-c2cnc(Oc3ccccc3)nc2)N1` [Example 272], the figure is above 90%; as for `O=C1CCC(c2cnc(Oc3cc(F)cc(F)c3)nc2)=NN1` [Example 105], above 90%; as for `c1ccc(Oc2ncc(-c3ccc4[nH]cnc4c3)cn2)cc1` [Example 257, 5-(2-Phenoxypyrimidin-5-Yl)-1H-Benzo[d]Imidazole Oxalate], above 90%. Still for that read-out and setting: for `O=C1CCC(c2cnc(Oc3c(F)cccc3F)nc2)=NN1` [Example 104] the value was above 90%; for `Nc1ccc(-c2cnc(Oc3ccc(F)cc3)nc2)cn1` [Example 44], above 90%.

For the compound `O=C1CCN(c2ccc(Cc3ccc(C(F)(F)F)cc3)cc2)C(=O)N1` [Example 342], the inhibition in vivo at 30 mg/kg lay in the range of 50 to 70%. For `O=C1CCN(c2ccc(Oc3cccc(F)c3)c3ccccc23)C(=O)N1` [Example 345], the inhibition in vivo at 30 mg/kg lay within 50 to 70%. Still for that read-out and setting: for `Fc1ccccc1Oc1ncc(-c2ccc3ncnn3c2)cn1` [Example 144] the value was above 90%. The same measure, in the same setting: as for `O=C1CCN(c2ccc(Oc3ccc(F)cc3)cc2)C(=O)N1` [Example 310], the figure is 50 to 70%. On the same count and under the same terms, as for `Nc1cc(-c2cnc(Oc3ccccc3F)nc2)ccn1` [Example 80], the figure is above 90%. Turning to `Cc1cn2cc(-c3cnc(Oc4ccc(F)cc4)nc3)ccc2n1` [Example 180], the inhibition in vivo at 30 mg/kg was above 90%. Still for that read-out and setting: for `N#Cc1cccc(Oc2ncc(-c3ccc(=O)[nH]n3)cn2)c1` [Example 112] the value was above 90%; for `Fc1cccc(Oc2ncc(-c3cn4ccnc4cn3)cn2)c1` [Example 150], above 90%; for `Fc1ccccc1Oc1ncc(-c2ccc3nnc(C(F)(F)F)n3c2)cn1` [Example 280], above 90%. `O=c1[nH]nccc1-c1cnc(Oc2cccc(F)c2)nc1` [Example 115]: the inhibition in vivo at 30 mg/kg was above 90%. The same measure, in the same setting: for `NC1=NC2C=CC(c3cnc(Oc4ccccc4)nc3)=CC2=N1` (centres unmarked) [Example 147] the value was above 90%.

`Fc1cccc(Oc2ncc(-c3ccc4ncnn4c3)cn2)c1` [Example 145]: the inhibition in vivo at 30 mg/kg was above 90%.

Take `Nc1cc(-c2cnc(Oc3cc(F)cc(F)c3)nc2)ccn1` [Example 82]: the inhibition in vivo at 30 mg/kg was above 90%. Same read-out and setting: for `c1ccc(Oc2ncc(-c3ccc4cccnc4c3)cn2)cc1` [Example 244] the value was above 90%. On the same count and under the same terms, as for `O=C1COCCN1c1cnc(Oc2ccc(F)cc2)nc1` [Example 231], the figure is above 90%; as for `Nc1ccc(-c2cnc(Oc3c(F)cccc3F)nc2)cn1` [Example 52], above 90%; as for `c1ccc(Oc2ncc(-c3ccc4cnccc4c3)cn2)cc1` [Example 251], above 90%. As to `Cc1cn2cc(-c3cnc(Oc4cccc(F)c4)nc3)ccc2n1` [Example 179], the inhibition in vivo at 30 mg/kg was above 90%. The same measure, in the same setting: as for `Fc1ccccc1Oc1ncc(-c2ccc3ccnn3c2)cn1` [Example 152], the figure is above 90%; as for `Fc1ccc(Oc2ncc(-c3ccn4nccc4c3)cn2)cc1` [Example 197], above 90%. On the same count and under the same terms, as for `N#Cc1cccc(Oc2ncc(-c3ccc(N)nc3)cn2)c1` [Example 89], the figure is above 90%. Same read-out and setting: as for `Cn1ncc2ccc(-c3cnc(Oc4cccc(F)c4)nc3)nc21` [Example 277], the figure is above 90%; as for `Cc1nc2ccc(-c3cnc(Oc4ccccc4F)nc3)cn2c1C` [Example 202], above 90%; as for `O=C1CCN(c2ccc(Cc3cccc(C(F)(F)F)c3)cc2)C(=O)N1` [Example 341], 50 to 70%. For `Fc1ccc(Oc2ncc(-c3ccc4cnnn4c3)cn2)cc1` [Example 176], the inhibition in vivo at 30 mg/kg is above 90%. With `COc1nc(Oc2ccccc2)ncc1-c1ccc2nccn2n1` [Example 160], the inhibition in vivo at 30 mg/kg is above 90%. Same read-out and setting: for `Cc1cn2ccc(-c3cnc(Oc4cccc(F)c4)nc3)cc2n1` [Example 183] the value was above 90%. Consider `O=C1CCN(c2ccc(Cc3cccc(OC(F)(F)F)c3)cc2)C(=O)N1` [Example 339], for which the inhibition in vivo at 30 mg/kg is 70 to 90%. Still for that read-out and setting: for `Fc1cccc(Oc2ncc(-c3ccn4nncc4c3)cn2)c1` [Example 186] the value was above 90%; for `Fc1ccc(Oc2ncc(-c3ccc4cnc(C(F)(F)F)n4c3)cn2)cc1` [Example 288], above 90%; for `COCc1cn2cc(-c3cnc(Oc4cccc(F)c4)nc3)ccc2n1` [Example 210], above 90%. With `Cn1ncc2ccc(-c3cnc(Oc4ccccc4F)nc3)nc21` [Example 276], the inhibition in vivo at 30 mg/kg was above 90%. On the same count and under the same terms, as for `c1ccc(Oc2ncc(-c3ccnc4ncccc34)cn2)cc1` [Example 139, 4-(2-Phenoxypyrimidin-5-Yl)-1,8-Naphthyridine], the figure is above 90%; as for `O=C1CCOCCN1c1cnc(Oc2ccc(F)cc2)nc1` [Example 234], above 90%; as for `Cc1nc(Oc2ccccc2)ccc1N1CCC(=O)NC1=O` [Example 326], 50 to 70%.
